One test has as its target T1, D816V Kit (Homo sapiens, UniProt P10721, D816V).
T1 construct: purchased Carna Bioscience 08-156
In words: Kit D816V assay at Km (Caliper electrophoretic mobility shift). The conditions noted are these: D816V Kit 0.5 nM, 15 uM ATP (Km), 1 uM Srctide, 25 C, 90 minutes; read-out: Biochemical Activity D816V IC50. How it is done:
In order to assess the activity of chemical compounds against the relevant kinase of interest, the Caliper LifeSciences electrophoretic mobility shift technology platform is used. Fluorescently labeled substrate peptide is incubated in the presence of kinase and ATP so that a […] proportion of the peptide is phosphorylated. At the end of the reaction, the mix of phosphorylated (product) and non-phosphorylated (substrate) peptides are passed through the microfluidic system of the Caliper EZ Reader 2, under an applied potential difference. The presence of the phosphate group on the product peptide provides a difference in mass and charge between those of the substrate peptide, resulting in a separation of the substrate and product pools in the sample. As the pools pass a LEDS within the instrument, these pools are detected and resolved as separate peaks. The ratio between these peaks therefore reflects the activity of the chemical matter at that concentration in that well, under those conditions.
Kit D816V assay at Km: In each well of a 384-well plate, 0.04 ng/ul (0.5 nM) of D816V Kit (Carna Bioscience 08-156) was incubated in a total of 12.5 ul of buffer (100 mM HEPES pH 7.5, 0.015% Brij 35, 10 mM MgCl2, 1 mM DTT) with 1 uM Srctide (5-FAM-GEEPLYWSFPAKKK-NH2) and 15 uM ATP at 25 C for 90 minutes in the presence or absence of a dosed concentration series of compound (1% DMSO final concentration). The reaction was stopped by the addition of 70 ul of Stop buffer (100 mM HEPES pH 7.5, 0.015% Brij 35, 35 mM EDTA and 0.2% of Coating Reagent 3 (Caliper Lifesciences)). The plate was then read on a Caliper EZReader 2 (protocol settings:—1.9 psi, upstream voltage—700, downstream voltage—3000, post sample sip 35s). Data was normalized to 0% and 100% inhibition controls and the IC50 or EC50 calculated using a 4-parameter fit using GraphPad Prism.

Test [1] concerns the target T2, Kit D816V in HMC1.2 cells (Homo sapiens, UniProt P10721, D816V/V560G).
T2 construct: endogenous in cells; host or cells: HMC1.2
Nature of the test: HMC1.2 autophosphorylation assay (Kit autophosphorylation at tyrosine 719, AlphaLISA). The format is cell-based. The conditions noted are these: HMC1.2 mast cell leukemia cells (Kit V560G and D816V), phospho-Y719 c-Kit, 90 minutes; read-out: Cellular Activity IC50. On the procedure:
10,000 HMC1.2 cells were incubated in 22 ul culture media (phenol-red free IMDM, no serum) in each well of a 384-well plate and serum starved overnight in a tissue culture incubator (5% CO2, 37° C.). A 10-point dose concentration series of compound (25 uM-95.4 pM) were then added to the cells in a volume of 3.1 ul to each well (0.25% DMSO final concentration). After 90 minutes, 6 ul of 5× AlphaLISA Lysis Buffer (Perkin Elmer) supplemented with a protease and phosphatase inhibitor cocktail (Cell Signaling Technologies) was added to each well and shaken at 450 rpm for 15 minutes at 4° C. 10 ul of phospho-Y719 c-Kit and total c-Kit antibodies (15 nM final concentration, Cell Signaling Technologies) and 50 ug/ml AlphaLISA rabbit acceptor beads (Perkin Elmer) were added to each well and shaken at 300 rpm at room temperature for 2 hours. 10 ul of 100 ug/ml streptavidin donor beads (Perkin Elmer) were added to each well, blocked from light with aluminum adhesive and shaken at 300 rpm at room temperature for 2 hours. Fluorescence signal was obtained on Envision (Perkin Elmer) by AlphaScreen 384 well HTS protocol. Data was normalized to 0% and 100% inhibition controls and the IC50 was calculated using Four Parameter Logistic IC50 curve fitting.
This cell line contains Kit mutated at positions V560G and D816V resulting in constitutive activation of the kinase. The following compounds were tested in an assay to measure direct inhibition of Kit D816V kinase activity by assaying Kit autophosphorylation at tyrosine 719 on the Kit protein.
(In general: In Alpha technology, singlet oxygen from a donor bead excites a nearby acceptor bead.)

Molecules are shown by their SMILES.

T1 sequence (P10721 26-976 D816V): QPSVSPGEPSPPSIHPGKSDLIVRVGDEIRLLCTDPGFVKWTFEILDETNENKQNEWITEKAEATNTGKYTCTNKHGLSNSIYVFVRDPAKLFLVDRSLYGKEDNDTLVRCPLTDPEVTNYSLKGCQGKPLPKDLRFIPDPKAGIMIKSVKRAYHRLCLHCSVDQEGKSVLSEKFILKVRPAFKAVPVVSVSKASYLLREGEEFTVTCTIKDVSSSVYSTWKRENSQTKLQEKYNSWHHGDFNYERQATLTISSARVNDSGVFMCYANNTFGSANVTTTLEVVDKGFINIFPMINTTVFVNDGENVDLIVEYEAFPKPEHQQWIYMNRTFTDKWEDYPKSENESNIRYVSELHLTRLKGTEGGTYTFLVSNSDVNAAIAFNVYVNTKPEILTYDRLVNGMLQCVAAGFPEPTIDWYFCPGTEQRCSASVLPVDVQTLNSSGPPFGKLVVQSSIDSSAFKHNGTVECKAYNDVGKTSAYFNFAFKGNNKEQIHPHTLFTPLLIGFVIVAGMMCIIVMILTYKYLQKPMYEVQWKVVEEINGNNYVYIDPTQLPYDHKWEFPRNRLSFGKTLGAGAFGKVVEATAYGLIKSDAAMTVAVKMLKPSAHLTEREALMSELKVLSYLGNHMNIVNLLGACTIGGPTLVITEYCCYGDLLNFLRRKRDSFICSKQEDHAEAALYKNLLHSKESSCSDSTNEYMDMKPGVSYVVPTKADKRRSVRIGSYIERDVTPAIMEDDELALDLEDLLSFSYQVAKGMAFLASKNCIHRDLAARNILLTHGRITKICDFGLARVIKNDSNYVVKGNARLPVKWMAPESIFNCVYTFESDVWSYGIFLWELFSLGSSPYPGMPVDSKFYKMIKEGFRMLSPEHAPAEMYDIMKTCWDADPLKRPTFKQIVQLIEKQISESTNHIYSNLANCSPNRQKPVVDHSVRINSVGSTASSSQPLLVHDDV
T2 sequence (P10721 26-976 V560G/D816V): as the sequence (P10721 26-976 D816V) above, with V535G counted along it

A word on the IC50: it is the concentration needed to halve the response being measured. On to `Cn1cc(-c2cc3c(-c4ccc(NC(=O)Cc5ccc(F)cc5)cc4)ncnn3c2)cn1` [Compound 11], for which the results for the half-maximal inhibitory concentration (IC50) (at D816V Kit; in test [1]) were 1.01 to 10 nM and 10 to 100 nM, respectively.
In the case of `Cn1cc(-c2cc3c(-c4ccc(NC(=O)[C@@](C)(N)c5ccc(Cl)cc5)cc4)ncnn3c2)cn1` [Compound 45, 2-amino-2-(4-chlorophenyl)-N-(4-(6-(1-methyl-1H-pyrazol-4-yl)pyrrolo[1,2-f][1,2,4]triazin-4-yl)phenyl)propanamide], the IC50 on D816V Kit is 1.01 to 10 nM; in test [1], below 10 nM.
Consider `Cn1cc(CC(=O)Nc2ccc(-c3ncnn4cc(-c5cnn(C)c5)cc34)cc2)cn1` [Compound 6], for which the IC50 at D816V Kit lay within 10 to 100 nM; in test [1], 1000 to 10000 nM.
As to `O=C(Cc1ccc(Cl)cc1)Nc1ccc(-c2ncnn3cc(-c4ccc(F)cc4)cc23)cc1` [Compound 27], the IC50 at D816V Kit fell in the range of 10 to 100 nM; in test [1], 1000 to 10000 nM.
As for `CC[C@H](C(=O)Nc1ccc(-c2ncnn3cc(-c4cnn(C)c4)cc23)cc1)c1ccc(Cl)cc1` [Compound 44], the 50% inhibitory concentration (IC50) on D816V Kit was 10 to 100 nM; in test [1], 100 to 1000 nM.
With `Cn1cc(-c2cc3c(-c4ccc(NC(=O)Cc5ccccc5)cc4)ncnn3c2)cn1` [Compound 3], the half-maximal inhibitory concentration (IC50) at D816V Kit lay within 1.01 to 10 nM; in test [1], 10 to 100 nM.
Turning to `CO[C@@H](C(=O)Nc1ccc(-c2ncnn3cc(-c4cnn(C)c4)cc23)cc1)c1ccc(Cl)cc1` [Compound 48], the IC50 was below 1 nM on D816V Kit and below 10 nM in test [1].
The like results for `CO[C@H](C(=O)Nc1ccc(-c2ncnn3cc(-c4cnn(C)c4)cc23)cc1)c1ccc(Cl)cc1` [Compound 53] were, in that order, 10 to 100 nM and 100 to 1000 nM.
For the molecule `COC(C(=O)Nc1ccc(-c2ncnn3cc(-c4cnn(C)c4)cc23)cc1)c1ccc(Cl)cc1` (centres unmarked) [Compound 52], the figures for the IC50 (on D816V Kit; in test [1]) were 1.01 to 10 nM and 10 to 100 nM, respectively.
For the molecule `O=C(c1ccc(-c2cc3c(-c4ccc(NS(=O)(=O)c5ccc(Cl)cc5)cc4)ncnn3c2)cc1)N1CCC1` [Compound 66], the figures for the IC50 (on D816V Kit; in test [1]) were above 100 nM and 1000 to 10000 nM, respectively.
The like results for `CC(C)Oc1ccc(-c2cc3c(-c4ccc(NS(=O)(=O)c5ccc(Cl)cc5)cc4)ncnn3c2)cc1` [Compound 62, 4-chloro-N-(4-(6-(4-isopropoxyphenyl)pyrrolo[2,1-f][1,2,4]triazin-4-yl)phenyl)benzenesulfonamide] were, in that order, 10 to 100 nM and 1000 to 10000 nM.
With `Cn1cc(-c2cc3c(-c4ccc(NS(=O)(=O)c5cccc(Cl)c5)cc4)ncnn3c2)cn1` [Compound 37], the IC50 is 10 to 100 nM on D816V Kit and 100 to 1000 nM in test [1].
Take `Cn1cc(-c2cc3c(-c4ccc(NC(=O)C(N)c5ccc(Cl)cc5)cc4)ncnn3c2)cn1` (centres unmarked) [Compound 31, 2-amino-2-(4-chlorophenyl)-N-(4-(6-(1-methyl-1H-pyrazol-4-yl)pyrrolo[1,2-f][1,2,4]triazin-4-yl)phenyl)acetamide]: the IC50 at D816V Kit is 1.01 to 10 nM; in test [1] it was below 10 nM.
`Cn1cc(-c2cc3c(-c4ccc(NS(=O)(=O)c5ccccc5Cl)cc4)ncnn3c2)cn1` [Compound 38]: the values for the IC50 (on D816V Kit; in test [1]) were 10 to 100 nM and 1000 to 10000 nM, respectively.
The like results for `CC(C(=O)Nc1ccc(-c2ncnn3cc(-c4cnn(C)c4)cc23)cc1)c1ccc(Cl)cc1` (centres unmarked) [Compound 29] were, in that order, 1.01 to 10 nM and below 10 nM.
As to `Cn1cc(-c2cc3c(-c4ccc(NS(=O)(=O)c5ccc(F)cc5)cc4)ncnn3c2)cn1` [Compound 24], the values for the half-inhibitory concentration (IC50) (on D816V Kit; in test [1]) were 1.01 to 10 nM and 100 to 1000 nM, respectively.
With `CS(=O)(=O)c1ccc(-c2cc3c(-c4ccc(NS(=O)(=O)c5ccc(Cl)cc5)cc4)ncnn3c2)cc1` [Compound 65], the concentration for half-maximal inhibition (IC50) at D816V Kit was in the range of 10 to 100 nM; in test [1] it was 100 to 1000 nM.
As for `CCC(=O)N1CC=C(c2cc3c(-c4ccc(NS(=O)(=O)c5ccc(Cl)cc5)cc4)ncnn3c2)CC1` [Compound 63], the IC50 is below 1 nM on D816V Kit and 10 to 100 nM in test [1].
Regarding `COc1ccc(S(=O)(=O)Nc2ccc(-c3ncnn4cc(-c5cnn(C)c5)cc34)cc2)cc1` [Compound 35], the IC50 was 1.01 to 10 nM at D816V Kit and 100 to 1000 nM in test [1].

The values are drawn from patent US10000496B2, “Compositions useful for treating disorders related to kit and PDGFR” (BLUEPRINT MEDICINES CORPORATION, priority 2015, dated 2018).
